Results as given in ChEMBL document CHEMBL1201861, “Genomics of Drug Sensitity in Cancer screening data, Wellcome Trust Sanger Institute”.

What was measured:
Test in all cases: cells
CTB-1 = type: functional, cell-based, Homo sapiens; settings: Homo sapiens, CTB-1
Description: SANGER: Inhibition of human CTB-1 cell growth in a cell viability assay.

Calu-6 = type: functional, cell-based, Homo sapiens; settings: Homo sapiens, Calu-6;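 further: growth of human Calu-6 cells, read out by a cell viability assay, IC50 marking inhibition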
Description: SANGER: Inhibition of human Calu-6 cell growth in a cell viability assay.

D283 Med = type: functional, cell-based, Homo sapiens; settings: Homo sapiens, D283 Med
Description: SANGER: Inhibition of human D-283MED cell growth in a cell viability assay.

DJM-1 = type: functional, cell-based, Homo sapiens; settings: Homo sapiens, DJM-1;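 further: growth inhibition of human DJM-1 cells, read out by a cell viability assay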
Description: SANGER: Inhibition of human DJM-1 cell growth in a cell viability assay.

DOHH-2 = type: functional, cell-based, Homo sapiens; settings: Homo sapiens, DOHH-2;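 further: growth inhibition of human DOHH-2 cells, read out with a cell viability assay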
Description: SANGER: Inhibition of human DOHH-2 cell growth in a cell viability assay.

EKVX = type: functional, cell-based, Homo sapiens; settings: Homo sapiens, EKVX;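 further: growth inhibition of human EKVX cells, read out with a cell viability assay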
Description: SANGER: Inhibition of human EKVX cell growth in a cell viability assay.

EW-1 = type: functional, cell-based, Homo sapiens; settings: Homo sapiens, EW-1
Description: SANGER: Inhibition of human EW-1 cell growth in a cell viability assay.

EW-11 = type: functional, cell-based, Homo sapiens; settings: Homo sapiens, EW-11;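 further: growth inhibition of human EW-11 cells, measured with a cell viability assay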
Description: SANGER: Inhibition of human EW-11 cell growth in a cell viability assay.

HD-MY-Z = type: functional, cell-based, Homo sapiens; settings: Homo sapiens, HD-MY-Z;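 further: growth inhibition of HD-MY-Z cells, read out with a cell viability assay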
Description: SANGER: Inhibition of human HD-MY-Z cell growth in a cell viability assay.

HL-60 = type: functional, cell-based, Homo sapiens; settings: Homo sapiens, HL-60;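 further: growth inhibition of human HL-60 cells, read out with a cell viability assay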
Description: SANGER: Inhibition of human HL-60 cell growth in a cell viability assay.

HT = type: functional, cell-based, Homo sapiens; settings: Homo sapiens, HT
Description: SANGER: Inhibition of human HT cell growth in a cell viability assay.

HT-144 = type: functional, cell-based, Homo sapiens; settings: Homo sapiens, HT-144
Description: SANGER: Inhibition of human HT-144 cell growth in a cell viability assay.

JVM-2 = type: functional, cell-based, Homo sapiens; settings: Homo sapiens, JVM-2;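 further: growth inhibition of JVM-2 cells determined by a cell viability assay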
Description: SANGER: Inhibition of human JVM-2 cell growth in a cell viability assay.

KARPAS-45 = type: functional, cell-based, Homo sapiens; settings: Homo sapiens, KARPAS-45;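 further: inhibition of cell line growth, read out through a viability assay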
Description: SANGER: Inhibition of human KARPAS-45 cell growth in a cell viability assay.

KINGS-1 = type: functional, cell-based, Homo sapiens; settings: Homo sapiens, KINGS-1;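 further: cell viability assay measuring suppression of KINGS-1 cell growth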
Description: SANGER: Inhibition of human KINGS-1 cell growth in a cell viability assay.

KNS-42 = type: functional, cell-based; settings: Homo sapiens;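 further: growth inhibition of KNS-42 cells, read out with a cell viability assay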
Description: SANGER: Inhibition of human KNS-42 cell growth in a cell viability assay.

LOX IMVI = type: functional, cell-based, Homo sapiens; settings: Homo sapiens, LOX IMVI
Description: SANGER: Inhibition of human LOXIMVI cell growth in a cell viability assay.

Lu-65 = type: functional, cell-based, Homo sapiens; settings: Homo sapiens, Lu-65;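 further: growth inhibition of Lu-65 cancer cells, read out by a cell viability assay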
Description: SANGER: Inhibition of human LU-65 cell growth in a cell viability assay.

MEG-01 = type: functional, cell-based, Homo sapiens; settings: Homo sapiens, MEG-01;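 further: growth inhibition of MEG-01 cells, read out by a cell viability assay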
Description: SANGER: Inhibition of human MEG-01 cell growth in a cell viability assay.

MZ2-MEL = type: functional, cell-based, Homo sapiens; settings: Homo sapiens, MZ2-MEL;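 further: growth inhibition of MZ2-MEL cells read out with a cell viability assay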
Description: SANGER: Inhibition of human MZ2-MEL cell growth in a cell viability assay.

NCI-H1092 = type: functional, cell-based, Homo sapiens; settings: Homo sapiens, NCI-H1092;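 further: cell growth inhibition measured with a cell viability assay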
Description: SANGER: Inhibition of human NCI-H1092 cell growth in a cell viability assay.

NCI-H1155 = type: functional, cell-based, Homo sapiens; settings: Homo sapiens, NCI-H1155;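 further: cell growth inhibition measured by a viability assay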
Description: SANGER: Inhibition of human NCI-H1155 cell growth in a cell viability assay.

NCI-H1581 = type: functional, cell-based, Homo sapiens; settings: Homo sapiens, NCI-H1581;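 further: cell growth inhibition read out by a viability assay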
Description: SANGER: Inhibition of human NCI-H1581 cell growth in a cell viability assay.

NCI-H2126 = type: functional, cell-based, Homo sapiens; settings: Homo sapiens, NCI-H2126;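 further: growth inhibition of the cancer cell line, determined with a cell viability readout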
Description: SANGER: Inhibition of human NCI-H2126 cell growth in a cell viability assay.

NCI-H23 = type: functional, cell-based, Homo sapiens; settings: Homo sapiens, NCI-H23;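 further: cell viability assay measuring growth inhibition of NCI-H23 cells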
Description: SANGER: Inhibition of human NCI-H23 cell growth in a cell viability assay.

NCI-H446 = type: functional, cell-based, Homo sapiens; settings: Homo sapiens, NCI-H446;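 further: growth inhibition of NCI-H446 cells determined by a cell viability assay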
Description: SANGER: Inhibition of human NCI-H446 cell growth in a cell viability assay.

NCI-H69 = type: functional, cell-based, Homo sapiens; settings: Homo sapiens, NCI-H69;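 further: growth inhibition of the cell line, read out with a cell viability assay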
Description: SANGER: Inhibition of human NCI-H69 cell growth in a cell viability assay.

NCI-H82 = type: functional, cell-based, Homo sapiens; settings: Homo sapiens, NCI-H82;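 further: growth inhibition of NCI-H82 cells, measured with a cell viability readout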
Description: SANGER: Inhibition of human NCI-H82 cell growth in a cell viability assay.

SNU-5 = type: functional, cell-based, Homo sapiens; settings: Homo sapiens, SNU-5;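 further: cell viability readout used to measure growth inhibition in human NCI-SNU-5 cells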
Description: SANGER: Inhibition of human NCI-SNU-5 cell growth in a cell viability assay.

NEC8 = type: functional, cell-based, Homo sapiens; settings: Homo sapiens, NEC8;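 further: growth inhibition of human NEC8 cells, read out by a cell viability assay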
Description: SANGER: Inhibition of human NEC8 cell growth in a cell viability assay.

NKM-1 = type: functional, cell-based, Homo sapiens; settings: Homo sapiens, NKM-1;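 further: growth inhibition of NKM-1 cells, read out with a cell viability assay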
Description: SANGER: Inhibition of human NKM-1 cell growth in a cell viability assay.

OMC-1 = type: functional, cell-based, Homo sapiens; settings: Homo sapiens, OMC-1;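 further: growth inhibition of the OMC-1 cell line, measured by a cell viability assay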
Description: SANGER: Inhibition of human OMC-1 cell growth in a cell viability assay.

P30-OHK = type: functional, cell-based, Homo sapiens; settings: Homo sapiens, P30-OHK;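 further: growth inhibition of the P30-OHK cell line, read out with a cell viability assay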
Description: SANGER: Inhibition of human P30-OHK cell growth in a cell viability assay.

PSN1 = type: functional, cell-based, Homo sapiens; settings: Homo sapiens, PSN1;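 further: suppression of growth of human PSN1 cells, read out by a cell viability assay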
Description: SANGER: Inhibition of human PSN1 cell growth in a cell viability assay.

RCC10RGB = type: functional, cell-based, Homo sapiens; settings: Homo sapiens, RCC10RGB;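 further: growth inhibition of human RCC10RGB cells, read out by a cell viability assay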
Description: SANGER: Inhibition of human RCC10RGB cell growth in a cell viability assay.

RPMI-8226 = type: functional, cell-based, Homo sapiens; settings: Homo sapiens, RPMI-8226
Description: SANGER: Inhibition of human RPMI-8226 cell growth in a cell viability assay.

SBC-1 = type: functional, cell-based, Homo sapiens; settings: Homo sapiens, SBC-1;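 further: cell viability assay measuring growth inhibition of the SBC-1 cell line, IC50 being the concentration that halves growth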
Description: SANGER: Inhibition of human SBC-1 cell growth in a cell viability assay.

SK-MEL-1 = type: functional, cell-based, Homo sapiens; settings: Homo sapiens, SK-MEL-1;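 further: growth inhibition of human SK-MEL-1 cells, read out by a cell viability assay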
Description: SANGER: Inhibition of human SK-MEL-1 cell growth in a cell viability assay.

SK-N-DZ = type: functional, cell-based, Homo sapiens; settings: Homo sapiens, SK-N-DZ; read-out: IC50;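 further: growth inhibition of the cancer cell line, read out through a viability assay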
Description: SANGER: Inhibition of human SK-N-DZ cell growth in a cell viability assay.

SK-UT-1 = type: functional, cell-based, Homo sapiens; settings: Homo sapiens, SK-UT-1;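 further: growth inhibition of SK-UT-1 cells, measured by a cell viability assay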
Description: SANGER: Inhibition of human SK-UT-1 cell growth in a cell viability assay.

SW 954 = type: functional, cell-based, Homo sapiens; settings: Homo sapiens, SW 954;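 further: growth inhibition of SW954 human cancer cells, read out as cell viability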
Description: SANGER: Inhibition of human SW954 cell growth in a cell viability assay.

A3-KAW = type: functional, cell-based, Homo sapiens; settings: Homo sapiens, A3-KAW;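 further: growth inhibition of human A3-KAW cells, read out with a cell viability assay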
Description: SANGER: Inhibition of human A3-KAW cell growth in a cell viability assay.

A388 = type: functional, cell-based; settings: Homo sapiens;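 further: growth inhibition of human A388 cells, read out with a cell viability assay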
Description: SANGER: Inhibition of human A388 cell growth in a cell viability assay.

ALL-PO = type: functional, cell-based, Homo sapiens; settings: Homo sapiens, ALL-PO;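 further: growth inhibition of ALL-PO cells, read out by a cell viability assay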
Description: SANGER: Inhibition of human ALL-PO cell growth in a cell viability assay.

BV-173 = type: functional, cell-based, Homo sapiens; settings: Homo sapiens, BV-173
Description: SANGER: Inhibition of human BV-173 cell growth in a cell viability assay.

TE-10 = type: functional, cell-based, Homo sapiens; settings: Homo sapiens, TE-10;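 further: growth inhibition of TE-10 cells, measured by a cell viability assay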
Description: SANGER: Inhibition of human TE-10 cell growth in a cell viability assay.

TE-8 = type: functional, cell-based, Homo sapiens; settings: Homo sapiens, TE-8;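 further: growth inhibition of TE-8 cells, measured with a cell viability readout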
Description: SANGER: Inhibition of human TE-8 cell growth in a cell viability assay.

TGBC1TKB = type: functional, cell-based, Homo sapiens; settings: Homo sapiens, TGBC1TKB;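 further: growth inhibition of TGBC1TKB cells, read out by a cell viability assay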
Description: SANGER: Inhibition of human TGBC1TKB cell growth in a cell viability assay.

VA-ES-BJ = type: functional, cell-based, Homo sapiens; settings: Homo sapiens, VA-ES-BJ;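 further: growth inhibition of the VA-ES-BJ cell line, read out by a cell viability assay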
Description: SANGER: Inhibition of human VA-ES-BJ cell growth in a cell viability assay.

With `C=CC(=O)N1CCCC(Nc2nc(Nc3ccc(N(C)C(=O)CC)cc3)nc3[nH]cnc23)C1` (stereo not drawn) the IC50 (CTB-1) was greater than 10.2 µM, the IC50 (Calu-6) was greater than 10.2 µM and the IC50 (D283 Med) was greater than 10.2 µM. The IC50 (DJM-1) was greater than 10.2 µM, the IC50 (DOHH-2) was greater than 10.2 µM and the IC50 (EKVX) was greater than 10.2 µM. The IC50 (EW-1) was greater than 10.2 µM, the IC50 (EW-11) was greater than 10.2 µM and the IC50 (HD-MY-Z) was greater than 10.2 µM. For the same molecule, the IC50 (HL-60) was greater than 10.2 µM, the IC50 (HT) was greater than 10.2 µM and the IC50 (HT-144) was greater than 10.2 µM. The IC50 (JVM-2) was greater than 10.2 µM, the IC50 (KARPAS-45) was greater than 10.2 µM and the IC50 (KINGS-1) was greater than 10.2 µM. The IC50 (KNS-42) was greater than 10.2 µM, the IC50 (LOX IMVI) was greater than 10.2 µM and the IC50 (Lu-65) was greater than 10.2 µM. It also gave an IC50 (MEG-01) greater than 10.2 µM, an IC50 (MZ2-MEL) greater than 10.2 µM and an IC50 (NCI-H1092) greater than 10.2 µM. For the same molecule, the IC50 (NCI-H1155) was greater than 10.2 µM, the IC50 (NCI-H1581) was greater than 10.2 µM and the IC50 (NCI-H2126) was greater than 10.2 µM. For the same molecule, the IC50 (NCI-H23) was greater than 10.2 µM, the IC50 (NCI-H446) was greater than 10.2 µM and the IC50 (NCI-H69) was greater than 10.2 µM. For the same molecule, the IC50 (NCI-H82) was greater than 10.2 µM, the IC50 (SNU-5) was greater than 10.2 µM and the IC50 (NEC8) was greater than 10.2 µM. For the same molecule, the IC50 (NKM-1) was greater than 10.2 µM, the IC50 (OMC-1) was greater than 10.2 µM and the IC50 (P30-OHK) was greater than 10.2 µM. It also gave an IC50 (PSN1) greater than 10.2 µM, an IC50 (RCC10RGB) greater than 10.2 µM and an IC50 (RPMI-8226) greater than 10.2 µM. For the same molecule, the IC50 (SBC-1) was 7.97 µM, the IC50 (SK-MEL-1) was greater than 10.2 µM and the IC50 (SK-N-DZ) was greater than 10.2 µM. It also gave an IC50 (SK-UT-1) greater than 10.2 µM, an IC50 (SW 954) of 2.56 µM and an IC50 (A3-KAW) greater than 10.2 µM. The IC50 (A388) was 7.41 µM, the IC50 (ALL-PO) was greater than 10.2 µM and the IC50 (BV-173) was greater than 10.2 µM. For the same molecule, the IC50 (TE-10) was greater than 10.2 µM, the IC50 (TE-8) was greater than 10.2 µM and the IC50 (TGBC1TKB) was greater than 10.2 µM. It also gave an IC50 (VA-ES-BJ) greater than 10.2 µM.

With `Cc1cc(N2CCOCC2)cc2[nH]c(-c3c(NC[C@@H](O)c4cccc(Cl)c4)cc[nH]c3=O)nc12` the IC50 (CTB-1) was greater than 5.12 µM, the IC50 (Calu-6) was greater than 5.12 µM and the IC50 (D283 Med) was greater than 5.12 µM. It also gave an IC50 (DJM-1) greater than 5.12 µM, an IC50 (DOHH-2) greater than 5.12 µM and an IC50 (EKVX) of 2.51 µM. The IC50 (EW-1) was 0.173 µM, the IC50 (EW-11) was greater than 5.12 µM and the IC50 (HD-MY-Z) was greater than 5.12 µM. For the same molecule, the IC50 (HL-60) was 0.286 µM, the IC50 (HT) was greater than 5.12 µM and the IC50 (HT-144) was 1.82 µM. The IC50 (JVM-2) was greater than 5.12 µM, the IC50 (KARPAS-45) was 4.01 µM and the IC50 (KINGS-1) was greater than 5.12 µM. It also gave an IC50 (KNS-42) greater than 5.12 µM, an IC50 (LOX IMVI) greater than 5.12 µM and an IC50 (Lu-65) of 4.5 µM. The IC50 (MEG-01) was 4.21 µM, the IC50 (MZ2-MEL) was 4.8 µM and the IC50 (NCI-H1092) was greater than 5.12 µM. It also gave an IC50 (NCI-H1155) greater than 5.12 µM, an IC50 (NCI-H1581) greater than 5.12 µM and an IC50 (NCI-H2126) of 3.98 µM. The IC50 (NCI-H23) was greater than 5.12 µM, the IC50 (NCI-H446) was greater than 5.12 µM and the IC50 (NCI-H69) was greater than 5.12 µM. For the same molecule, the IC50 (NCI-H82) was greater than 5.12 µM, the IC50 (SNU-5) was greater than 5.12 µM and the IC50 (NEC8) was greater than 5.12 µM. For the same molecule, the IC50 (NKM-1) was greater than 5.12 µM, the IC50 (OMC-1) was greater than 5.12 µM and the IC50 (P30-OHK) was greater than 5.12 µM. For the same molecule, the IC50 (PSN1) was 0.395 µM, the IC50 (RCC10RGB) was 3.57 µM and the IC50 (RPMI-8226) was greater than 5.12 µM. It also gave an IC50 (SBC-1) greater than 5.12 µM, an IC50 (SK-MEL-1) greater than 5.12 µM and an IC50 (SK-N-DZ) of 2.11 µM. It also gave an IC50 (SK-UT-1) greater than 5.12 µM, an IC50 (SW 954) of 0.49 µM and an IC50 (A3-KAW) of 1.93 µM. The IC50 (A388) was greater than 5.12 µM, the IC50 (ALL-PO) was 0.373 µM and the IC50 (BV-173) was greater than 5.12 µM. It also gave an IC50 (TE-10) of 1.2 µM, an IC50 (TE-8) of 0.506 µM and an IC50 (TGBC1TKB) of 2.31 µM. It also gave an IC50 (VA-ES-BJ) greater than 5.12 µM.
